Where two headings read alike, the source gives them in different places.
Experiments:
CYP505A30 [1] = biological target: T1, CYP505A30 (Thermothelomyces thermophilus, UniProt G2QDZ3)
CYP505A30 heme domain [2] = biological target: T2, CYP505A30 heme domain (Thermothelomyces thermophilus, UniProt G2QDZ3); test: UV–visible spectral binding titration with CYP505A30 heme domain
CYP505A1 [3] = system: CYP505A1; design: method as in PMID 11985584; conditions: cited from earlier work
CYP505A30 [4] = biological target: T1, CYP505A30; test: UV–visible spectral binding titration with intact CYP505A30; conditions: for Kd: substrate binding to intact CYP505A30, heme absorbance change, 25 °C
CYP505A1 [5] = test: CYP505A1 dodecanoic acid oxidation product distribution (literature); format: biochemical, Fusarium oxysporum; conditions: CYP505A1, from literature values
CYP505A30 heme domain [6] = biological target: T2, CYP505A30 heme domain
P450 BM3 [7] = system: P450 BM3; design: method as in PMID 1727637; conditions: cited from earlier work
CYP505A30 [8] = biological target: T1, CYP505A30; remark: listed apart in the source
rat CPR = conditions: cited from earlier work
CYP505A30 [9] = biological target: T1, CYP505A30; test: UV-visible spectral binding titration of fatty acid substrates (type I heme Soret shift) to ca. 4-6 uM enzyme in 50 mM potassium phosphate pH 7.0 at 25 °C, hyperbolic or Morrison fit.; design: gene MYCTH_101224; intact CYP505A30, amino acids 1-1080, N-terminal hexahistidine tag (pET15b), expressed in E. coli
heme domain = biological target: T3, heme domain (Thermothelomyces thermophilus, UniProt G2QDZ3); test: as above
T3 construct: gene MYCTH_101224; heme domain, amino acids 1-464 (stop codon at Gly465, named D464X), N-terminal hexahistidine tag (pET15b), expressed in E. coli
T3 sequence (G2QDZ3 1-464): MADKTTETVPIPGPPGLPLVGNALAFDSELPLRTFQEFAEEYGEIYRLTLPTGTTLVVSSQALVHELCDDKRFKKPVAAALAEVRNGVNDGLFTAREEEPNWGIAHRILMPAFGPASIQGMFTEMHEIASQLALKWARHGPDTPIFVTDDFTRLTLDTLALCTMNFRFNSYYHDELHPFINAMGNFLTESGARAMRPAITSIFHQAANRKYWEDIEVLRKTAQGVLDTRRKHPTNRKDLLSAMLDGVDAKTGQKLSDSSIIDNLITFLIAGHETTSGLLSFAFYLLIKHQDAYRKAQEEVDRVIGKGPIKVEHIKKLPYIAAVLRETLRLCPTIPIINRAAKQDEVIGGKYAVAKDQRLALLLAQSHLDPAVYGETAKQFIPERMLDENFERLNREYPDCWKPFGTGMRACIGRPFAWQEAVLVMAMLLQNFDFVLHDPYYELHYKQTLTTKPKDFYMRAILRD

CYP505A30 heme domain [10] = biological target: T2, CYP505A30 heme domain; conditions: arachidonic acid-bound heme domain, vs NHE
P450 BM3 [11] = conditions: cited from earlier work
[12] = biological target: Desulfovibrio vulgaris flavodoxin; conditions: D. vulgaris flavodoxin; cited from earlier work
[13] = biological target: FMN (flavodoxin-like) domain of human reductase; design: method as in PMID 6778861, PMID 11695890, PMID 12600198; conditions: cited from earlier work
[14] = system: FMN (flavodoxin-like) domain of P450 BM3 reductase; design: method as in PMID 6778861, PMID 11695890, PMID 12600198; conditions: cited from earlier work

T1 sequence (G2QDZ3 entry or part of it): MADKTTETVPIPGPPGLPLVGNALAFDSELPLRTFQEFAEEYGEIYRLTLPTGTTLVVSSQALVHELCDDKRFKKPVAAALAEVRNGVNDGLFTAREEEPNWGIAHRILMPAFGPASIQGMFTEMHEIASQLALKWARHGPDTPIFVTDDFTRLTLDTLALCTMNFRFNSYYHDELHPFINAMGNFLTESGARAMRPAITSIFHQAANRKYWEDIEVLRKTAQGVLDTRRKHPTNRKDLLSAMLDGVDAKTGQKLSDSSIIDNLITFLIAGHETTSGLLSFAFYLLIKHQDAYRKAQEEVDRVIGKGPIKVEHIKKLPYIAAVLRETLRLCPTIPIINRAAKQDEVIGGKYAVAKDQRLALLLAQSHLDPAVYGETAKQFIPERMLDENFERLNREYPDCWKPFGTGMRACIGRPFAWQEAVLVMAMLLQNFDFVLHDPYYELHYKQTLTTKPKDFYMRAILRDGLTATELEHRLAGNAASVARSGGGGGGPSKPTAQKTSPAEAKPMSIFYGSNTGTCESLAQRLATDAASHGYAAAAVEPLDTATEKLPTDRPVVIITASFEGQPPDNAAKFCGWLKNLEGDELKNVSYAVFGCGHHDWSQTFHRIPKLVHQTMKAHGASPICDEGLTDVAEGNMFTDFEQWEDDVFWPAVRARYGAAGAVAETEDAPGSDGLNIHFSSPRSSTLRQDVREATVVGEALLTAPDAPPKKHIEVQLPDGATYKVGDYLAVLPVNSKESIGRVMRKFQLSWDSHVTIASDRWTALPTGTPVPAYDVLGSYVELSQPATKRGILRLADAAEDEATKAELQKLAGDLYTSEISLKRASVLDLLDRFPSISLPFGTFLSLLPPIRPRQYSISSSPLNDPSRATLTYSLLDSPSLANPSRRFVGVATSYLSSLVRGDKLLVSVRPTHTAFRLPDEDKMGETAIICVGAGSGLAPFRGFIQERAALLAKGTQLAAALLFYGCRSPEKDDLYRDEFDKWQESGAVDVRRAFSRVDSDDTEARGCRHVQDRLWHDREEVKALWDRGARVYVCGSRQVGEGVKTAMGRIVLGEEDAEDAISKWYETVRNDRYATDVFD

With CCCCCCCCCCCC(=O)O [dodecanoic acid] the “ratio ω-1/ω-2 hydroxylated products” value (CYP505A30 [1]; CYP505A30) was 8.8, the “ω-1 hydroxylated product proportion” value (CYP505A30 [1]; CYP505A30, GC–MS) was 88% and the “ω-2 hydroxylated product proportion” value (CYP505A30 [1]; CYP505A30, GC–MS) was ~10%. The “ω-3 hydroxylated product proportion” value (CYP505A30 [1]; CYP505A30, GC–MS) was 2%, the “ω-1 hydroxylated product proportion” value (CYP505A30 [1]; CYP505A30, GC–MS, listed as lauric acid) was “approximately 88%” and the Kd (CYP505A30 heme domain [2]) was 9000 ± 900 nM. The “ω-1 hydroxylated product proportion” value (CYP505A1 [3]) was ~55%, the “ω-2 hydroxylated product proportion” value (CYP505A1 [3]) was ~37% and the “ω-3 hydroxylated product proportion” value (CYP505A1 [3]) was ~8%. The Kd (CYP505A30 [4]) was 6100 ± 400 nM, the “ratio ω-1/ω-2 hydroxylated products” value (CYP505A1 [5]) was 1.5 and the “HS (%)” value (CYP505A30 heme domain [6]) was 60%. The “ω-1 hydroxylated product proportion” value (P450 BM3 [7]) was 48%, the “ω-2 hydroxylated product proportion” value (P450 BM3 [7]) was 26% and the “ω-3 hydroxylated product proportion” value (P450 BM3 [7]) was 26%. For the same compound, the “HS (%)” value (CYP505A30 [8]) was 10%.

In the case of Cc1cc2nc3c(=O)[nH]c(=O)nc-3n(C[C@H](O)[C@H](O)[C@H](O)COP(=O)(O)OP(=O)(O)OC[C@H]3O[C@@H](n4cnc5c(N)ncnc54)[C@H](O)[C@@H]3O)c2cc1C [FAD, flavin adenine dinucleotide], the binding (rat CPR) is listed as “subnanomolar”.

CCCCCCCCCCCCCCCC(=O)NCC(=O)O [N-palmitoylglycine (NPG), N-palmitoylglycine] gave a Kd (CYP505A30 [9]) of 5400 ± 100 nM and a Kd (heme domain) of 2700 ± 800 nM.

For CCCCC/C=C\C/C=C\C/C=C\C/C=C\CCCC(=O)O [arachidonic acid], the “heme Fe^III/Fe^II midpoint potential E^0′” value (CYP505A30 heme domain [10]) is given as −69 ± 3 mV, the kcat (P450 BM3 [11]; P450 BM3, similar conditions) is given as 285 ± 32 s^–1 and the “rate constant of oxidation” value (P450 BM3 [11]; P450 BM3) is given as > 17 000 min^–1. The Kd (CYP505A30 heme domain [2]) was 120 ± 10 nM, the “HS (%)” value (CYP505A30 heme domain [2]; extent of HS heme iron accumulated, heme domain, estimated to nearest 5%) was 65% and the Kd (CYP505A30 [4]) was 1700 ± 100 nM. The “HS (%)” value (CYP505A30 [4]; extent of HS heme iron accumulated, intact CYP505A30, estimated to nearest 5%) was 60%.

For Cc1cc2nc3c(=O)[nH]c(=O)nc-3n(C[C@H](O)[C@H](O)[C@H](O)COP(=O)(O)O)c2cc1C [FMN, flavin mononucleotide], the Kd [12] is listed as 2.4 nM, the Kd [13] is listed as 42 ± 7 nM and the Kd [14] is listed as 86 ± 14 nM.

Reference: paper PMC6044835, “Expression, Purification, and Biochemical Characterization of the Flavocytochrome P450 CYP505A30 from Myceliophthora thermophila” (ACS Omega, 2017)
